From patent publication US11369569B2, “Target-specific delivery of therapeutic agents” (University of Virginia Patent Foundation, priority 2015, dated 2022)
Where two headings read alike, the source gives them in different places.

Assays:
VEGFR2 = molecular target: T1, VEGFR2 (Mus musculus, UniProt P35918); assay type: in vivo; settings: for Vessel volume fraction (VVF) in infarct region: day 7 post-MI
T1 construct: from tissue; host or cells: endothelium of infarct/border zone in mouse heart (in vivo)
T1 sequence (P35918 20-1345): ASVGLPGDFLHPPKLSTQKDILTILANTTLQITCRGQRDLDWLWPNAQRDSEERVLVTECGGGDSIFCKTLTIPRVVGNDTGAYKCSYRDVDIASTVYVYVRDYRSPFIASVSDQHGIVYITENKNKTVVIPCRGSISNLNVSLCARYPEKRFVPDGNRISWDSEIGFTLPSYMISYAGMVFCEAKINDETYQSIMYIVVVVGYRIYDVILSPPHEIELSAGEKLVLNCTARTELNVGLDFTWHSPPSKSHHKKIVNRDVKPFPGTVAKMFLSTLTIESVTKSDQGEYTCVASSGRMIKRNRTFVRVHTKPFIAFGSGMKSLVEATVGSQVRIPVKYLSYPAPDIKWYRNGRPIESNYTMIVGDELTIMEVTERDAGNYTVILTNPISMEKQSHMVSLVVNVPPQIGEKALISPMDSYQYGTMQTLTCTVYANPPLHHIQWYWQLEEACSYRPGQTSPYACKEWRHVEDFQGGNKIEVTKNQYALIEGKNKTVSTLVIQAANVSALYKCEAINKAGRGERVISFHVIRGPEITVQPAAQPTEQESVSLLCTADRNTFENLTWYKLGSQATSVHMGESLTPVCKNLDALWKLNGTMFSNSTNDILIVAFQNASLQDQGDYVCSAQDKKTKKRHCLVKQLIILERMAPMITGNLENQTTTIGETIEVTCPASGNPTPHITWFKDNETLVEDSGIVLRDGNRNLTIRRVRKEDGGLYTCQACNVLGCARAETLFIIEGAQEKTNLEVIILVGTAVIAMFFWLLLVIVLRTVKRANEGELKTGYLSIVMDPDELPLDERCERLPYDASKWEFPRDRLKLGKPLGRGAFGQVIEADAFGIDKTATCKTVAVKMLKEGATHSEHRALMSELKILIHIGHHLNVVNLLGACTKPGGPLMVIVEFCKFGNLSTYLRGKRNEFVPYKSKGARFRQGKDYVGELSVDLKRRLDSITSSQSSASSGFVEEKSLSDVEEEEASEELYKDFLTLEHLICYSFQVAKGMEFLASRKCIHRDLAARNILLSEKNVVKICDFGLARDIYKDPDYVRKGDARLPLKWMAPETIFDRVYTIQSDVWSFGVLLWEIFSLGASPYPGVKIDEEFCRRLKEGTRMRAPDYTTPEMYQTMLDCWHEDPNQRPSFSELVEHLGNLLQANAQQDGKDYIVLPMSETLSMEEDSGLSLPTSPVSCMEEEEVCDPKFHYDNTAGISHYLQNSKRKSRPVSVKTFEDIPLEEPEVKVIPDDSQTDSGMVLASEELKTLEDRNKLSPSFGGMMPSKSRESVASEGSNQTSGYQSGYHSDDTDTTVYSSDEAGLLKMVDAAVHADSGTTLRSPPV

[1] = test system: cell types of interest in the infarct/border zone; test: Immunofluorescence of heart sections to identify cell types bound by phage clones; assay type: in vivo, mice; settings: immunostaining
Method: Following ex vivo imaging of heart and liver, hearts from the mice under study were fixed in 4% paraformaldehyde for 1 h followed by equilibration in 30% sucrose for overnight at 4° C. The hearts were washed 3-4 times in DPBS (Dulbecco's phosphate-buffered saline) and placed in OCT medium (Sakura Finetek USA, Inc, Torrance, Calif.) and frozen by placing over liquid N2 vapors. The embedded tissue samples cut into 5-7 μm sections using a cryostat (Leica Microsystems Inc, Buffalo Grove, Ill.), for subsequent imaging with a fluorescence microscope fitted with appropriate filter sets (Olympus BX41). Cell types of interest in the infarct/border zone were identified by immunohistochemistry using the following antibodies: rat anti-mouse CD 31 at 1:250 dilution (endothelial marker)(BD Biosciences, San Jose, Calif.), rat anti-mouse myoglobin at 1:200 (cardiomyocyte marker) (Santa Cruz Biotechnology Inc, Dallas, Tex.), anti-alpha-smooth muscle actin (aSMA) conjugated with Alexa Fluor 488 at 1:200 (myofibroblast marker) (Sigma Chemical Co., St. Louis, Mo.), and rabbit anti-mouse c-Kit at 1:150 (cardiac progenitor cell marker) (Santa Cruz Biotechnology Inc, Dallas, Tex.). […] Appropriate secondary antibodies were employed as needed to identify the primary antibodies:goat anti-rat Alexa Fluor 488 (1:250) and goat anti-rabbit Alexa Fluor 488 (1:250) (Abcam, Cambridge, Mass.). Binding of I-1 and B-50 phage clones to cardiomyocytes and c-Kit+ cells was determined by flow cytometry. The RL-14 cardiomyocyte cell line (ATCC) was used to test the binding of fluorescently labeled I-1 phage (VivoTag 645) and myocardial infarct derived cardiac and bone marrow cells to test the binding of fluorescently labeled B-50 phage (VivoTag 680).

CRIP-2 = molecular target: T2, CRIP-2 (Mus musculus, UniProt Q9DCT8); set-up: reference not given here; settings: via binding to CRIP-2 in myocardium and endothelium; cited from earlier work
T2 construct: host or cells: myocardium and endothelium of the heart
T2 sequence (Q9DCT8 1-208): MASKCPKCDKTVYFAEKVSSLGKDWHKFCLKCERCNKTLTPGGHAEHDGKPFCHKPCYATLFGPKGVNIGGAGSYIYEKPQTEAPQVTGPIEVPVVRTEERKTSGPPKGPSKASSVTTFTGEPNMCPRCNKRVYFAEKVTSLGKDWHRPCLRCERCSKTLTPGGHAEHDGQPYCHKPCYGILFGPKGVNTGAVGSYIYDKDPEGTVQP

[2] = test system: cell types of interest in the infarct/border zone; test: Immunofluorescence co-localization of peptide-conjugated liposomes with cell markers (JACoP, Mander's overlap); assay type: in vivo, mice; settings: post-MI hearts
EF fragment of Hornerin = molecular target: T3, EF fragment of Hornerin (Homo sapiens, UniProt Q86YZ3); test: Biolayer interferometry of B-40 binding to hornerin EF fragments; settings: biotinylated B-40 peptide on streptavidin sensors
T3 construct: Different versions of the hornerin fragments containing EF domains were created; made in house
T3 sequence (Q86YZ3 1-81 limits assumed): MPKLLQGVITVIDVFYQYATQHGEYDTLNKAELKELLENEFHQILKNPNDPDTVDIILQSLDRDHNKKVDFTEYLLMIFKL
Method: FIG. 31 depicts biolayer interferometry to determine B-40 liposome binding to EF fragment of Hornerin. Using Fortebio octect system, B-40 liposomes binding to EF fragment was carried out. Streptavidin sensors were coated with Biotinylated EF fragments and their interaction with no peptide, I-1 and B-40 liposomes was tested.
FIG. 33 depicts biolayer interferometry to determine B-40 liposome binding to EF domains. Using Fortebio octect system, B-40 peptide binding to different EF fragments was carried out. Streptavidin sensors were coated with biotinylated B-40 peptide and its interaction with different fragments containing EF domains was carried out.

Row | Molecule | Cell type / component for which phage clone is specific [1] | Cell type for which peptide conjugated liposomes are specific [2] | other results
1 | Clc1ccc(Nc2nnc(Cc3ccncc3)c3ccccc23)cc1 [PTK787] |  |  | Percent effective in reducing neovessel formation (VEGFR2; 20 mg/kg-d): 18%; Vessel volume fraction (VVF) in infarct region (VEGFR2; 20 mg/kg-d): 0.052; Percent effective in reducing neovessel formation (VEGFR2; 100 mg/kg-d): 65%; Vessel volume fraction (VVF) in infarct region (VEGFR2; 100 mg/kg-d): 0.021; Vessel volume fraction (VVF) in infarct region (VEGFR2; 100 mg/kg-d, listed as free PTK787): 0.022; Median (ED50, bootstrap) (VEGFR2; 1000 nonparametric bootstrap data sets): 63 mg/kg-d; Estimated (ED50) (VEGFR2; Imax model fit from vessel volume fraction): 63 mg/kg-d
2 | AMRPPLN (listed as Homo sapiens) [B-42] | cardiomyocytes |  | 
3 | ATMSRAP (listed as Homo sapiens) [B-47] | endothelial cells |  | 
4 | CRPPR [CRPPR-peptide] |  |  | Targeting to the heart (CRIP-2): 47 fold
5 | ESRQVTP (listed as Homo sapiens) [B-43] | extracellular matrix |  | 
6 | GLSQLQR (listed as Homo sapiens) [B-50] | c-Kit+ cells | c-Kit+ cells | 
7 | NCP: intentionally off-target peptide (Panc-27) previously shown to be specific for pancreatic cancer cells (KTLLPTP) [reference compound] |  | non-specifically taken up by macrophages | 
8 | RPPALAP (listed as Homo sapiens) [B-29] | myofibroblasts | myofibroblasts | 
9 | SDTWSSR (listed as Homo sapiens) [B-7] | myofibroblasts |  | 
10 | SHSNARS (listed as Homo sapiens) [B-27] | c-Kit+ cells |  | 
11 | SLLNRMP (listed as Homo sapiens) [B-40] | endothelial cells | endothelial cells | Binding to fragments containing EF domains (EF fragment of Hornerin): possible binding partner
12 | TALPRLN (listed as Homo sapiens) [I-1] | cardiomyocytes | cardiomyocytes | 
13 | TMQHDG (listed as Homo sapiens) [B-11] | extracellular matrix |  | 
